# Test results taken from ChEMBL document CHEMBL5252666, “Discovery of CVN636: A Highly Potent, Selective, and CNS Penetrant mGluR7 Allosteric Agonist” (ACS Med Chem Lett, 2023).
# The source made the active and inactive calls. The calls are words filed in the database; no cut-off is given here.
# Columns and labels:
# [1] = molecular target: T1, Metabotropic glutamate receptor 7 (Homo sapiens, UniProt Q14831); assay: Agonist activity at human mGluR7 expressed in CHO cells expressing CRE-Luc reporter gene assessed as reduction in forskolin-stimulated cAMP production by measuring maximum efficacy preincubated for 15 mins followed by forskolin stimulation and measured after 5 hrs by luminescence based Steady glo assay relative to control; assay type: cell-based; conditions: filed as agonist, time 315.0 min
# T1 sequence (Q14831 whole entry): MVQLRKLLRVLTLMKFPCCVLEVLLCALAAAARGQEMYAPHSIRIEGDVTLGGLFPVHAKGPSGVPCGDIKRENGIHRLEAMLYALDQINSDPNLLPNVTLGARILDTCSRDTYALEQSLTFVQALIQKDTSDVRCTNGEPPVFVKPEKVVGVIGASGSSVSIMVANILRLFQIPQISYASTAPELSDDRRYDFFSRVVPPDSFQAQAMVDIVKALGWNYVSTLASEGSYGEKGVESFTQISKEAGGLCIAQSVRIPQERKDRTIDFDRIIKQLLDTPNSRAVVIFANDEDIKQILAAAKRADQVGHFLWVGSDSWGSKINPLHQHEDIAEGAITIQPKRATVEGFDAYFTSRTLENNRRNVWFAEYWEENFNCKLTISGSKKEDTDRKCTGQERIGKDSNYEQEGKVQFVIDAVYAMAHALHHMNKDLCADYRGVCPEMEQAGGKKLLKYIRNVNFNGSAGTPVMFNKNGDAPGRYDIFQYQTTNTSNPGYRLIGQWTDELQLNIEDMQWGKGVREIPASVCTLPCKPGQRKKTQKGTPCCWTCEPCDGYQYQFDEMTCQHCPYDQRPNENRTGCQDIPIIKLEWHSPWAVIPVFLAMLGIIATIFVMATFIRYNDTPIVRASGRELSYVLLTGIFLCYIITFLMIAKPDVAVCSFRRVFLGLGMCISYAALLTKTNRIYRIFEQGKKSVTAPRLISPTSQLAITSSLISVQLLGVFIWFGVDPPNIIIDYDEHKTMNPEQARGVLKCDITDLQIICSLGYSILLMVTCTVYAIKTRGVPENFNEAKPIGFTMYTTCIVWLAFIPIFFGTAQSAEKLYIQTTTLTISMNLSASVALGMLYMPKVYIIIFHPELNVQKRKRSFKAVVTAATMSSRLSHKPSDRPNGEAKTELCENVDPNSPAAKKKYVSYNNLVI
# [2] = molecular target: T1, Metabotropic glutamate receptor 7; assay: Agonist activity at human mGluR7 expressed in CHO cells expressing CRE-Luc reporter gene assessed as reduction in forskolin-stimulated cAMP production preincubated for 15 mins followed by forskolin stimulation and measured after 5 hrs by luminescence based Steady glo assay; assay type: cell-based
# [3] = molecular target: T1, Metabotropic glutamate receptor 7; assay: Agonist activity at human mGluR7 expressed in CHO cells assessed as change in extracellular impedance incubated for 40 mins by CellKey impedance assay; assay type: cell-based; conditions: filed as agonist
# [4] = molecular target: Histamine H1 receptor (Homo sapiens) (UniProt P35367); assay: Binding affinity to human H1 receptor at 10 uM
# Sequence of Histamine H1 receptor (Homo sapiens) (P35367 whole entry): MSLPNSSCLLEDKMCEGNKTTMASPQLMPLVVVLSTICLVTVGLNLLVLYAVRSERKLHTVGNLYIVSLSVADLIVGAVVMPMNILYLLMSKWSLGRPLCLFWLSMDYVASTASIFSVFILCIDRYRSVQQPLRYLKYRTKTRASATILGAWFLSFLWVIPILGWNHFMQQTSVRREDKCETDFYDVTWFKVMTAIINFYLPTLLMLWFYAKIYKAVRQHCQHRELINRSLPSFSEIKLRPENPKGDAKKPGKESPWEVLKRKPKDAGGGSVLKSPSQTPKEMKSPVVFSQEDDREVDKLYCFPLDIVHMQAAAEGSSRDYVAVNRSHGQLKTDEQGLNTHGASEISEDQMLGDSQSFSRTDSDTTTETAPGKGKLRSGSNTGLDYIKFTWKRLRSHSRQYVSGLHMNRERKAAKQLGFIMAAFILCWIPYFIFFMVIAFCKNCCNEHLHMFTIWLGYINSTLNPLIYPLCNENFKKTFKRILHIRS
# [5] = molecular target: T1, Metabotropic glutamate receptor 7; assay: Agonist activity at human mGluR7b expressed in CHO cells assessed as inhibition of forskolin-stimulated cAMP accumulation; assay type: cell-based
# [6] = molecular target: Adrenergic receptor alpha-1 (Rattus norvegicus) (UniProt P15823+P23944+P43140); assay: Binding affinity to rat alpha 1 adrenergic receptor at 10 uM; assay type: protein assay
# [7] = molecular target: T1, Metabotropic glutamate receptor 7; assay: Allosteric agonist activity at mGluR7 (unknown origin) assessed as reduction in forskolin-induced cAMP production by measuring fold change in EC50 preincubated for 15 mins in the presence of LY341495 followed by forskolin stimulation and measured after 5 hrs by luminescence based steady glo assay; conditions: filed as agonist, time 315.0 min
# [8] = molecular target: T1, Metabotropic glutamate receptor 7; assay: Desensitization at human mGluR7 expressed in CHO cells assessed as reduction in tool agonist response at 10 uM preincubated for 1 hrs followed by compound replacement with assay buffer and measured 1 hrs after tool agonist addition by CellKey impedance assay relative to control; assay type: cell-based; design: scale not given: the % may be the effect or the level left
# [9] = molecular target: Sodium-dependent noradrenaline transporter (Homo sapiens) (UniProt P23975); assay: Binding affinity to human norepinephrine transporter at 10 uM
# [10] = molecular target: T1, Metabotropic glutamate receptor 7; assay: (§1) Positive allosteric modulation of mGluR7 (unknown origin) assessed as change in forskolin-induced cAMP production by measuring reduction in maximum response preincubated with compound for 15 mins in the presence of LY341495 followed by forskolin stimulation and measured after 5 hrs by luminescence based steady glo assay; design: scale not given: the % may be the effect or the level left; conditions: filed as positive allosteric modulator, time 315.0 min
# [11] = molecular target: T1, Metabotropic glutamate receptor 7; assay: as §1, with “fold change” for “reduction”, “EC50 shift” for “maximum response”; conditions: filed as positive allosteric modulator, time 315.0 min
# [12] = molecular target: T1, Metabotropic glutamate receptor 7; assay: Competitive binding affinity to mGluR7 (unknown origin) assessed as rightward shift in forskolin-induced cAMP production level by measuring fold change preincubated for 15 mins in the presence of LY341495 followed by forskolin stimulation and measured after 5 hrs by luminescence based steady glo assay; conditions: filed as agonist, time 315.0 min
# [13] = Tmax in Sprague-Dawley rat at 3 mg/kg, po measured after 24 hrs by LC-MS/MS analysis; assay type: ADME, organism-based; conditions: in vivo
# [14] = Unbound fraction in rat plasma incubated for 6 hrs by LC-MS/MS based rapid equilibrium dialysis; assay type: ADME, cell-free
# [15] = Half-life in Sprague-Dawley rat at 3 mg/kg, po measured after 24 hrs by LC-MS/MS analysis; assay type: ADME, organism-based; conditions: in vivo
# [16] = Cmax in Sprague-Dawley rat at 3 mg/kg, po measured after 24 hrs by LC-MS/MS analysis; assay type: ADME, organism-based; design: dose 3 mg/kg, time 24 hrs, route po; conditions: in vivo
# [17] = molecular target: Metabotropic glutamate receptor 2 (Homo sapiens) (UniProt Q14416); assay: Agonist activity at mGluR2 (unknown origin) at 1 to 10 uM by cAMP assay; conditions: dose 1-10 µM
# Sequence of Metabotropic glutamate receptor 2 (Homo sapiens) (Q14416 19-872 limits assumed): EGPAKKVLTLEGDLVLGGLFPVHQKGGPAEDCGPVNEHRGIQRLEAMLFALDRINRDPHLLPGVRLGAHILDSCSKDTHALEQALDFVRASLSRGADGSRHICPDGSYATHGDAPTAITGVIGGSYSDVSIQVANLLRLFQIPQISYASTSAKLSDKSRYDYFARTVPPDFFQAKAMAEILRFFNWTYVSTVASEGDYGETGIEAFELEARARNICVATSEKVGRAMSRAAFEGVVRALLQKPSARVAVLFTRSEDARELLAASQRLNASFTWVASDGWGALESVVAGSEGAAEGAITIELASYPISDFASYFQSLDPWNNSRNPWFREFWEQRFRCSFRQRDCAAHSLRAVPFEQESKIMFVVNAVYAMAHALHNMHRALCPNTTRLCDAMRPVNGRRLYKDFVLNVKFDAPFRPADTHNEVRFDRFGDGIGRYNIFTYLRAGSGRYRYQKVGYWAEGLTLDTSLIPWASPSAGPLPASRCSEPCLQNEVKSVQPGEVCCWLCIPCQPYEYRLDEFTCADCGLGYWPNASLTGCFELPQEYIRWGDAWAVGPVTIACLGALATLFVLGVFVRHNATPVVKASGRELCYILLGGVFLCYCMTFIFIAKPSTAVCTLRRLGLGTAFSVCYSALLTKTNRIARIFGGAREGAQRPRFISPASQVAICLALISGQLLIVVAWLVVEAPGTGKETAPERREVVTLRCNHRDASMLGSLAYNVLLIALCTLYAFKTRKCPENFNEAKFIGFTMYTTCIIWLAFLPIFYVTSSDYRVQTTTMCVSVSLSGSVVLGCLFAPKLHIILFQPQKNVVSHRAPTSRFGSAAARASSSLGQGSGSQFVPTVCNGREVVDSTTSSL
# [18] = AUC(0 to infinity) in Sprague-Dawley rat at 3 mg/kg, po measured after 24 hrs by LC-MS/MS analysis; assay type: ADME, organism-based; design: time 24 hrs, dose 3 mg/kg, route po; conditions: in vivo
# [19] = Ratio of unbound brain to plasma concentration in Sprague-Dawley rat at 3 mg/kg, po measured after 4 hrs by LC-MS/MS analysis; assay type: ADME, organism-based
# [20] = molecular target: Metabotropic glutamate receptor 1 (Homo sapiens) (UniProt Q13255); assay: Agonist activity at mGluR1 (unknown origin) at 1 to 10 uM by Galphaqi5 calcium flux assay; conditions: dose 1-10 µM
# [21] = Ratio of drug concentration in Sprague-Dawley rat brain to plasma at 3 mg/kg, po measured after 4 hrs by LC-MS/MS analysis; assay type: ADME, organism-based
# [22] = molecular target: Metabotropic glutamate receptor 8 (Homo sapiens) (UniProt O00222); assay: Agonist activity at human mGluR8 expressed in CHO cells assessed as reduction in forskolin-induced cAMP production incubated for 1 hrs by HTRF analysis; assay type: cell-based
# [23] = Unbound fraction in rat brain incubated for 6 hrs by LC-MS/MS based rapid equilibrium dialysis; assay type: ADME, tissue-based
# Rattus norvegicus [24] = assay: In vivo agonist activity in alcohol preferring Marchigian-Sardinian rat assessed as reduction in alcohol self-administration by measuring number of response at 3 mg/kg, po administered for 1 hrs; assay type: functional
# [25] = molecular target: Metabotropic glutamate receptor 5 (Homo sapiens) (UniProt P41594); assay: Agonist activity at mGluR5 (unknown origin) at 1 to 10 uM by Galphaqi5 calcium flux assay; conditions: dose 1-10 µM
# Rattus norvegicus [26] = assay: In vivo agonist activity in alcohol preferring Marchigian-Sardinian rat assessed as reduction in alcohol self-administration at 3 mg/kg, po administered for 1 hrs relative to control; assay type: functional; design: scale not given: the % may be the effect or the level left
# [27] = molecular target: Metabotropic glutamate receptor 6 (Homo sapiens) (UniProt O15303); assay: Agonist activity at mGluR6 (unknown origin) at 1 to 10 uM by cAMP assay; conditions: dose 1-10 µM
# Sequence of Metabotropic glutamate receptor 6 (Homo sapiens) (O15303 whole entry): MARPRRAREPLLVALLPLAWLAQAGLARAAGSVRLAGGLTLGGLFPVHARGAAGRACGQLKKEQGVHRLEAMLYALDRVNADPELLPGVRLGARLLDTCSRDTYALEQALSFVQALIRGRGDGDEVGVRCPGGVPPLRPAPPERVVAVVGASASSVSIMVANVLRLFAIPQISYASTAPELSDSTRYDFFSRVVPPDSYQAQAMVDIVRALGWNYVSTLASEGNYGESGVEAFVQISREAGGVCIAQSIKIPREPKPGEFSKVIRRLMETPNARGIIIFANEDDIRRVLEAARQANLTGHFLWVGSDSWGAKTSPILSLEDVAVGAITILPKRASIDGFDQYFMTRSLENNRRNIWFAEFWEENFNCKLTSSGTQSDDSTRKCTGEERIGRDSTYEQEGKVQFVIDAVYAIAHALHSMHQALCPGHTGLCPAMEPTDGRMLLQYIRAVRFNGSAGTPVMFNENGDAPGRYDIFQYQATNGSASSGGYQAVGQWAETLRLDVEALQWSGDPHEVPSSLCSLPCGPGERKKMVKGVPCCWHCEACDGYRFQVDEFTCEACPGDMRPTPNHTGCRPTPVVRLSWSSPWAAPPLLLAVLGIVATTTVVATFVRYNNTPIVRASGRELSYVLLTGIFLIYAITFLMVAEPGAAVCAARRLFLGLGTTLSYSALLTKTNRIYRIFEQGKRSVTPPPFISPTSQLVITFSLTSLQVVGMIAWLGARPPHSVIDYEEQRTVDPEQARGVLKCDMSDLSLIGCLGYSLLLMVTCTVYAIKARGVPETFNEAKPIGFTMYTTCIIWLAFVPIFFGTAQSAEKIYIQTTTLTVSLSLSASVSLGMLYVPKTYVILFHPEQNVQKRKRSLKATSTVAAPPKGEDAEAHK
# [28] = Volume of distribution at steady state in Sprague-Dawley rat at 0.5 mg/kg, iv measured after 24 hrs by LC-MS/MS analysis; assay type: ADME, organism-based; conditions: in vivo
# Rattus norvegicus [29] = assay: In vivo agonist activity in po dosed alcohol preferring Marchigian-Sardinian rat assessed as reduction in alcohol self-administration measured after 1 hrs; assay type: functional, organism-based; conditions: dose 0.3-3 mg/kg
# [30] = molecular target: Metabotropic glutamate receptor 3 (Homo sapiens) (UniProt Q14832); assay: Agonist activity at mGluR3 (unknown origin) at 1 to 10 uM by Galphaqi5 calcium flux assay; conditions: dose 1-10 µM
# Sequence of Metabotropic glutamate receptor 3 (Homo sapiens) (Q14832 23-879 limits assumed): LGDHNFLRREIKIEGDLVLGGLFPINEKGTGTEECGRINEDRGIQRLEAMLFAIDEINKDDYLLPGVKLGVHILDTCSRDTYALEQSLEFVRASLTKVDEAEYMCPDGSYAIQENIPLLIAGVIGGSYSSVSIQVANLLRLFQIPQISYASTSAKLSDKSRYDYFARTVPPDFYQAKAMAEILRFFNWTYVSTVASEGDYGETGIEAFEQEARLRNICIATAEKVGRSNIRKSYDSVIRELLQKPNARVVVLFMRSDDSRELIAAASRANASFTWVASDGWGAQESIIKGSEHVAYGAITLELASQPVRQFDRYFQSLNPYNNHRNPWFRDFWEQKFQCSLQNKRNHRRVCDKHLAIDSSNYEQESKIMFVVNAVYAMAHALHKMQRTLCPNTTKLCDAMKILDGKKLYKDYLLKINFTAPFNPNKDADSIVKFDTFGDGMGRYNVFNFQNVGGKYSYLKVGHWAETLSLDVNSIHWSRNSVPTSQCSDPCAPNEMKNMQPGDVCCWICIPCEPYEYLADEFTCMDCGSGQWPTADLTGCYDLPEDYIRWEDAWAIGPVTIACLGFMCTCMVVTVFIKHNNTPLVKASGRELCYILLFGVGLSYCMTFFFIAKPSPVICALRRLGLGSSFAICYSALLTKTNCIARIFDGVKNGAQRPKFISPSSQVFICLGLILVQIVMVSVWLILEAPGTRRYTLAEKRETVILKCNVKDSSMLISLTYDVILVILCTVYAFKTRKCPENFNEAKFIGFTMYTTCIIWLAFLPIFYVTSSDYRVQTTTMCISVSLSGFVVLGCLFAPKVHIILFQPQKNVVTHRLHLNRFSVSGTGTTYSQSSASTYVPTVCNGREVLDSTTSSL
# [31] = Stability in cryopreserved rat hepatocytes assessed as clearance measured for 120 mins by LC-MS/MS analysis; assay type: ADME, cell-based, Hepatocyte; conditions: read-out: CLH
# [32] = molecular target: Metabotropic glutamate receptor 4 (Homo sapiens) (UniProt Q14833); assay: Agonist activity at human mGluR4 expressed in CHO cells assessed as reduction in forskolin-induced cAMP production incubated for 1 hrs by HTRF analysis; assay type: cell-based
# Sequence of Metabotropic glutamate receptor 4 (Homo sapiens) (Q14833 whole entry): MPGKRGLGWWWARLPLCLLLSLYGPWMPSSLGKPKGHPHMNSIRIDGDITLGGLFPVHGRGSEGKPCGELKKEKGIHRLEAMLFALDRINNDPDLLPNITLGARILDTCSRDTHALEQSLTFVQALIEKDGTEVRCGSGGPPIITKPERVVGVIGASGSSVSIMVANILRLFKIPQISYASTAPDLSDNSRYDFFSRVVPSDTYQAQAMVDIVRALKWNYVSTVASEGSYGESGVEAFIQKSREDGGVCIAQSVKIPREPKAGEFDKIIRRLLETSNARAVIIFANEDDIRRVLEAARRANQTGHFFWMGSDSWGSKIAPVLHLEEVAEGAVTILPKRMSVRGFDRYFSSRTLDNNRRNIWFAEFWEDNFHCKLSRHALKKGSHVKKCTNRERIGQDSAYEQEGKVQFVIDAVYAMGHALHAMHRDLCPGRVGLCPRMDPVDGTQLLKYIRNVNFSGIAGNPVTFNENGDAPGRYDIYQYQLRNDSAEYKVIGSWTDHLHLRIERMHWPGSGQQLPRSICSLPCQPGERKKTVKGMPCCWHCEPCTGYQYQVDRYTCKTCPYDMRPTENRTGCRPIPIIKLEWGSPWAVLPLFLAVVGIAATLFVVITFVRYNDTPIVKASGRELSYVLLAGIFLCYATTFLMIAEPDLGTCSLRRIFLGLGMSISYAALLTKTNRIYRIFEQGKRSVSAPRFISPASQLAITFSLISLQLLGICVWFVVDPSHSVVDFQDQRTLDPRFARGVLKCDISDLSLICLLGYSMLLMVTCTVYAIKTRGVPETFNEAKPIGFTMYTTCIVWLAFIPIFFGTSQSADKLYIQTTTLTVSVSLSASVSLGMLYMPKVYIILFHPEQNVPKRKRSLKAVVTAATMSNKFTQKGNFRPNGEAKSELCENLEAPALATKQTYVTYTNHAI
# [33] = molecular target: Metabotropic glutamate receptor 7 (Mus musculus, UniProt Q68ED2); assay: Agonist activity at mouse mGluR7 expressed in CHO cells expressing CRE-Luc reporter gene assessed as reduction in forskolin-stimulated cAMP production preincubated for 15 mins followed by forskolin stimulation and measured after 5 hrs by luminescence based Steady glo assay; assay type: cell-based
# Sequence of Metabotropic glutamate receptor 7 (Mus musculus, UniProt Q68ED2) (Q68ED2 whole entry): as the sequence (Q14831 whole entry) above, with R5G, A27V, S488T, A520P, D578N counted along it
# [34] = Oral bioavailability in Sprague-Dawley rat at 3 mg/kg measured after 24 hrs by LC-MS/MS analysis; assay type: ADME, organism-based; conditions: in vivo
# [35] = Apparent permeability from apical to basolateral side in MDCK-MDR1 cells; assay type: ADME, cell-based, Canis lupus familiaris; conditions: dog
# [36] = Efflux ratio of apparent permeability in MDCK-MDR1 cells; assay type: ADME, cell-based, Canis lupus familiaris; conditions: dog
# [37] = molecular target: T1, Metabotropic glutamate receptor 7; assay: Desensitization at human mGluR7 expressed in CHO cells assessed as reduction in tool agonist response at EC80 concentration preincubated for 1 hrs followed by compound replacement with assay buffer and measured 1 hrs after tool agonist addition by CellKey impedance assay relative to control; assay type: cell-based
# [38] = Stability in rat liver microsomes assessed as intrinsic clearance preincubated for 60 mins followed by NADPH addition and measured upto 60 mins by LC-MS/MS analysis; assay type: ADME, Microsome; conditions: time < 120 min, read-out: CLH
# [39] = Stability in human liver microsomes assessed as intrinsic clearance preincubated for 60 mins followed by NADPH addition and measured upto 60 mins by LC-MS/MS analysis; assay type: ADME, Microsome; conditions: time < 120 min, read-out: CLH
smiles,measurement,setting,value
O=C(Cc1ccc(Cl)cc1)NC1Cc2ccccc2C1,Emax,[1],71%
same,EC50,[2],156 nM
N[C@@H](CCC(=O)O)C(=O)O,Activity,[3],Active
C[C@H](C(=O)NC1Cc2ccccc2C1)c1ccc(F)cc1,Emax,[1],96%
same,EC50,[2],55 nM
c1ccc(C(NCCNC(c2ccccc2)c2ccccc2)c2ccccc2)cc1,Activity,[4],Active
same,Activity,[3],Active
same,EC50,[5],64 nM
same,Activity,[6],Active
same,fold change (FC),[7],2
same,Activity,[8],74%
same,Activity,[9],Active
C[C@@H](C(=O)NC1Cc2ccccc2C1)c1ccccc1,Emax,[1],69%
same,EC50,[2],1340 nM
O=C(Nc1ccc(Oc2ccc(Cl)cn2)c(Cl)c1)c1ccccn1,Activity,[10],43%
same,fold change (FC),[11],2
N[C@@H](CCP(=O)(O)O)C(=O)O,fold change (FC),[12],13
CNC[C@@H](OCC(=O)N1CCCc2ccccc21)c1ccccc1,EC50,[5],110 nM
C[C@H](C(=O)N[C@H]1COc2ccccc2[C@@H]1S(C)(=O)=O)c1ccc(F)cc1,Tmax,[13],0.67 h
same,Emax,[1],97%
same,Fu,[14],0.283
same,t1/2,[15],2.25 h
same,Cmax,[16],1240 nM
same,Activity,[17],inactive
same,AUC,[18],1404 ng·h/mL
same,"K(p,uu,brain)",[19],0.45
same,Activity,[3],Active
same,Activity,[20],inactive
same,BPR,[21],0.56
same,Activity,[22],inactive
same,Fu,[23],0.227
same,Activity,Rattus norvegicus [24],40.9
same,Activity,[25],inactive
same,fold change (FC),[7],2
same,Activity,Rattus norvegicus [26],25%
same,Activity,[27],inactive
same,Vdss,[28],1.49 L/kg
same,Activity,Rattus norvegicus [29],Dose-Dependent Effect
same,Activity,[30],inactive
same,CLint scaled,[31],145 mL/min/kg
same,Activity,[32],inactive
same,EC50,[33],2 nM
same,F,[34],24%
same,Papp,[35],16.2 ×10⁻⁶ cm/s
same,Ratio,[36],0.5
same,Activity,[37],inactive
same,EC50,[2],7 nM
C[C@H](C(=O)NC1Cc2ccccc2C1)c1ccccc1,Emax,[1],95%
same,EC50,[2],113 nM
C[C@H](C(=O)N[C@@H]1CCc2ccccc2[C@H]1S(C)(=O)=O)c1ccc(F)cc1,Emax,[1],95%
same,microsomal CLint,[38],55 µL/min/mg
same,microsomal CLint,[39],2 µL/min/mg
